≈ marks a conversion by molar mass, not a printed value. Like-named read-outs stand apart in the source and are kept apart here. Positions of bridges follow the written chain, without caps; N, C: chain ends. Non-standard residues stand in square brackets, D forms with d. Residues, ends and D or L forms follow the SMILES beside them. *: point of attachment. Decanoyl(3R-OH) = CCCCCCC[C@@H](O)CC(=O)*; Phe(4-NH2) = Nc1ccc(C[C@H](N)C(=O)O)cc1; Decanoyl = CCCCCCCCCC(=O)*; dDab = NCC[C@@H](N)C(=O)O; X6 = CC(C)CCCC(O)CC(=O)*; Dab = NCC[C@H](N)C(=O)O
Key:
[1] = tested on: P. aeruginosa GN_043, PmxR
Experimental: (§1) Bacteria were either obtained from American Type Culture Collection (ATCC; Manassas, Va., USA) or independent academic clinical isolate collections, as listed in Table 18 below. Bacteria were cultured in Nutrient broth (NB; Bacto Laboratories, catalogue No. 234000) or Mueller Hinton broth (MHB; Bacto Laboratories, catalogue No. 211443) at 37° C. overnight with shaking (˜180 RPM). A sample of each culture was then diluted 50-fold in fresh MHB and incubated at 37° C. for 2-3 h with shaking (˜180 RPM). Compound stock solutions were prepared as 0.64 mg/mL or 2.56 mg/mL in water. The compounds, at twice the final desired concentration, were serially diluted 2-fold across the wells of 96-well plates (Polystyrene, Corning, catalogue No. 3370). Mid-log phase bacterial cultures (after 2-3 h incubation) were diluted to a final concentration of 1×10^6 colony forming units (CFU)/mL, and 50 μL was added to each well giving a final cell density of 5×10^5 and a compound concentration range of 32 μg/mL to 0.015 μg/mL (128-0.06 μg/mL against P. aeruginosa PA9704).

[2] = tested on: K. pneumoniae ATCC 700603, MDR; details: ATCC 700603
Experimental: as §1

A. baumannii ATCC 19606 = details: ATCC 19606
Experimental: as §1

[3] = tested on: K. pneumoniae GN_102 PmxR; details: GN 102 PmxR
Experimental: as §1

E. coli ATCC 25922 = details: ATCC 25922
Experimental: as §1

[4] = tested on: K. pneumoniae ATCC BAA-2146, NDM-1 pos; details: ATCC BAA-2146
Experimental: as §1

[5] = tested on: P. aeruginosa GN_105, PmxR; details: GN 105, PmxR
Experimental: as §1

[6] = tested on: S. aureus ATCC 25923, MSSA; details: ATCC 25923
Experimental: as §1

P. aeruginosa ATCC 27853 = details: ATCC 27853
Experimental: as §1

K. pneumoniae ATCC 13883 = details: ATCC 13883
Experimental: as §1

A. baumannii GN_093 PmxR = details: GN 093 PmxR
Experimental: as §1

[7] = tested on: K. pneumoniae GN_106, PmxR; details: GN 106, PmxR
Experimental: as §1

| Structure (SMILES) | MIC K. pneumoniae ATCC 700603, MDR [2] [mg/L] | MIC A. baumannii ATCC 19606 (A. baumannii ATCC 19606) [mg/L] | MIC K. pneumoniae GN_102 PmxR [3] [mg/L] | MIC E. coli ATCC 25922 (E. coli ATCC 25922) [mg/L] | MIC K. pneumoniae ATCC BAA-2146, NDM-1 pos [4] [mg/L] | MIC P. aeruginosa GN_105, PmxR [5] [mg/L] | MIC S. aureus ATCC 25923, MSSA [6] [mg/L] | MIC P. aeruginosa ATCC 27853 (P. aeruginosa ATCC 27853) [mg/L] | MIC K. pneumoniae ATCC 13883 (K. pneumoniae ATCC 13883) [mg/L] | MIC A. baumannii GN_093 PmxR (A. baumannii GN_093 PmxR) [mg/L] | MIC K. pneumoniae GN_106, PmxR [7] [mg/L] | MIC, K. pneumoniae ATCC 700603, MDR [2] [mg/L] | MIC, A. baumannii ATCC 19606 (A. baumannii ATCC 19606) [mg/L] | MIC, E. coli ATCC 25922 (E. coli ATCC 25922) [mg/L] | MIC, K. pneumoniae ATCC BAA-2146, NDM-1 pos [4] [mg/L] | MIC, P. aeruginosa ATCC 27853 (P. aeruginosa ATCC 27853) [mg/L] | MIC, K. pneumoniae ATCC 13883 (K. pneumoniae ATCC 13883) [mg/L] | further results |
| --- | --- | --- | --- | --- | --- | --- | --- | --- | --- | --- | --- | --- | --- | --- | --- | --- | --- | --- |
| CCCCCCC[C@@H](O)CC(=O)N[C@H](CCN)C(=O)N[C@H]1CCNC(=O)[C@H](CC(C)C)NC(=O)[C@H](Cc2ccc(N)cc2)NC(=O)[C@H](CCN)NC(=O)[C@H](CC(C)C)NC(=O)[C@@H](Cc2ccccc2)NC(=O)[C@H](CCN)NC1=O [compound 8644, 3(R)OH-nC9CO-D-Dab-cyc[L-Dab-L-DAB-D-Phe-L-Leu-L-Dab-L-4NH2Phe-L-Leu]] ({Decanoyl(3R-OH)}-[dDab][Dab][Dab][dF]L[Dab][Phe(4-NH2)]L; lactam 2-C) | 8 (≈ 7.23 µM) | 16 (≈ 14.5 µM) | 2 (≈ 1.81 µM) | 16 (≈ 14.5 µM) | 4 (≈ 3.62 µM) | 8 (≈ 7.23 µM) | 32 (≈ 28.9 µM) | 8 (≈ 7.23 µM) | 8 (≈ 7.23 µM) | >32 | 8 (≈ 7.23 µM) |  |  |  |  |  |  | MIC P. aeruginosa GN_043, PmxR ([1]; polymyxin-resistant): 8 mg/L (≈ 7.23 µM) |
| CCCCCCCCCC(=O)N[C@H](CCN)C(=O)N[C@H]1CCNC(=O)[C@H](CC(C)C)NC(=O)[C@H](CCN)NC(=O)[C@H](CCN)NC(=O)[C@H](CC(C)C)NC(=O)[C@@H](Cc2ccccc2)NC(=O)[C@H](CCN)NC1=O [compound 5017, nC9CO-D-Dab-cyc[L-Dab-L-Dab-D-Phe-L-Leu-L-Dab-L-Dab-L-Leu]] (Decanoyl-[dDab][Dab][Dab][dF]L[Dab][Dab]L; lactam 2-C) | 16 (≈ 15.6 µM) | 8 (≈ 7.78 µM) | 32 (≈ 31.1 µM) | 4 (≈ 3.89 µM) | 16 (≈ 15.6 µM) | 4 (≈ 3.89 µM) | 16 (≈ 15.6 µM) | 2 (≈ 1.94 µM) | 8 (≈ 7.78 µM) | 16 (≈ 15.6 µM) | 16 (≈ 15.6 µM) |  |  |  |  |  |  | MIC P. aeruginosa GN_043, PmxR [1]: 2 mg/L (≈ 1.94 µM) |
| CCCCCCC[C@@H](O)CC(=O)N[C@H](CCN)C(=O)N[C@H]1CCNC(=O)[C@H](CC(C)C)NC(=O)[C@H](CCN)NC(=O)[C@H](Cc2ccc(N)cc2)NC(=O)[C@H](CC(C)C)NC(=O)[C@@H](Cc2ccccc2)NC(=O)[C@H](CCN)NC1=O [compound 8642, 3(R)OH-nC9CO-D-Dab-cyc[L-Dab-L-DAB-D-Phe-L-Leu-L-4NH2Phe-L-Dab-L-Leu]] ({Decanoyl(3R-OH)}-[dDab][Dab][Dab][dF]L[Phe(4-NH2)][Dab]L; lactam 2-C) |  |  |  |  |  |  |  |  |  |  |  | 4 (≈ 3.62 µM) | 8 (≈ 7.23 µM) | 4 (≈ 3.62 µM) | 4 (≈ 3.62 µM) | 8 (≈ 7.23 µM) | 4 (≈ 3.62 µM) | MIC, P. aeruginosa FADDI-PA070, PmxR ([1]; Table 5, polymyxin-resistant): 8 mg/L (≈ 7.23 µM); MIC, K. pneumoniae Cl Koprana 10065 0661:1, PmxR [3]: 2 mg/L (≈ 1.81 µM); MIC, P. aeruginosa PA9704, PmxR [5]: 8 mg/L (≈ 7.23 µM); MIC, S. Aureus ATCC 25923, MSSA [6]: 8 mg/L (≈ 7.23 µM); MIC, A. baumannii Cl Ptyela 10073 4512:2, PmxR (A. baumannii GN_093 PmxR): 16 mg/L (≈ 14.5 µM); MIC, K. pneumoniae Cl 138-16347-20362, PmxR [7]: 4 mg/L (≈ 3.62 µM) |
| CCCCCCC[C@@H](O)CC(=O)N[C@H](Cc1c[nH]c2ccccc12)C(=O)N[C@H]1CCNC(=O)[C@H](CC(C)C)NC(=O)[C@H](CCN)NC(=O)[C@H](CCN)NC(=O)[C@H](CC(C)C)NC(=O)[C@@H](Cc2ccccc2)NC(=O)[C@H](CCN)NC1=O [compound 6441, 3(R)OH-nC9CO-D-Trp-cyc[L-Dab-L-Dab-D-Phe-L-Leu-L-Dab-L-Dab-L-Leu]] ({Decanoyl(3R-OH)}-[dW][Dab][Dab][dF]L[Dab][Dab]L; lactam 2-C) |  |  | 8 (≈ 7.08 µM) |  |  | 16 (≈ 14.2 µM) |  |  |  | 32 (≈ 28.3 µM) | 4 (≈ 3.54 µM) | 8 (≈ 7.08 µM) | 16 (≈ 14.2 µM) | 16 (≈ 14.2 µM) | 8 (≈ 7.08 µM) | 16 (≈ 14.2 µM) | 16 (≈ 14.2 µM) | MIC P. aeruginosa GN_043, PmxR ([1]; Table 6, polymyxin-resistant): 8 mg/L (≈ 7.08 µM); MIC, S. aureus ATCC 25923, MSSA [6]: 8 mg/L (≈ 7.08 µM) |
| CCCCCCC[C@@H](O)CC(=O)N[C@H](Cc1c[nH]c2ccccc12)C(=O)N[C@H]1CCNC(=O)[C@H](CC(C)C)NC(=O)[C@H](CCN)NC(=O)[C@H](CCN)NC(=O)[C@H](Cc2ccccc2)NC(=O)[C@@H](CC(C)C)NC(=O)[C@H](CCN)NC1=O [compound 6426, 3(R)OH-nC9CO-D-Trp-cyc[L-Dab-L-Dab-D-Leu-L-Phe-L-Dab-L-Dab-L-Leu]] ({Decanoyl(3R-OH)}-[dW][Dab][Dab][dL]F[Dab][Dab]L; lactam 2-C) | 8 (≈ 7.08 µM) | 16 (≈ 14.2 µM) | 4 (≈ 3.54 µM) | 4 (≈ 3.54 µM) | 8 (≈ 7.08 µM) | 8 (≈ 7.08 µM) | 8 (≈ 7.08 µM) | 8 (≈ 7.08 µM) | 8 (≈ 7.08 µM) | 16 (≈ 14.2 µM) | 4 (≈ 3.54 µM) |  |  |  |  |  |  | MIC P. aeruginosa GN_043, PmxR ([1]; P. aeruginosa GN_043, PmxR): 8 mg/L (≈ 7.08 µM) |
| CC(C)CCCC(O)CC(=O)N[C@@H](CCN)C(=O)N[C@H]1CCNC(=O)[C@H](CC(C)C)NC(=O)[C@H](CCN)NC(=O)[C@H](CCN)NC(=O)[C@H](CC(C)C)NC(=O)[C@@H](Cc2ccccc2)NC(=O)[C@H](CCN)NC1=O (stereo partly drawn) [compound 5566, nC5(7-Me)CH(OH)CH2CO-L-Dab-cyc[L-Dab-L-Dab-D-Phe-L-Leu-L-Dab-L-Dab-L-Leu]] (X6-[Dab][Dab][Dab][dF]L[Dab][Dab]L; lactam 2-C) |  |  | 32 (≈ 31.1 µM) |  |  | 4 (≈ 3.88 µM) |  |  |  | 16 (≈ 15.5 µM) | 16 (≈ 15.5 µM) | 8 (≈ 7.76 µM) | 8 (≈ 7.76 µM) | 4 (≈ 3.88 µM) | 16 (≈ 15.5 µM) | 4 (≈ 3.88 µM) | 4 (≈ 3.88 µM) | MIC P. aeruginosa GN_043, PmxR ([1]; Table 6, polymyxin-resistant): 2 mg/L (≈ 1.94 µM); MIC, S. aureus ATCC 25923, MSSA [6]: 2 mg/L (≈ 1.94 µM) |
| CCCCCCC[C@@H](O)CC(=O)N[C@H](CCN)C(=O)N[C@H]1CCNC(=O)[C@H](CC(C)C)NC(=O)[C@H](C)NC(=O)[C@H](CCN)NC(=O)[C@H](CC(C)C)NC(=O)[C@@H](Cc2ccccc2)NC(=O)[C@H](CCN)NC1=O [compound 4944, 3(R)OH-nC9CO-D-Dab-cyc[L-Dab-L-Dab-D-Phe-L-Leu-L-Dab-L-Ala-L-Leu]] ({Decanoyl(3R-OH)}-[dDab][Dab][Dab][dF]L[Dab]AL; lactam 2-C) | 16 (≈ 15.8 µM) | 32 (≈ 31.5 µM) | 8 (≈ 7.88 µM) | 16 (≈ 15.8 µM) | 8 (≈ 7.88 µM) | 16 (≈ 15.8 µM) | >32 | 8 (≈ 7.88 µM) | 16 (≈ 15.8 µM) | >32 | 32 (≈ 31.5 µM) |  |  |  |  |  |  | MIC P. aeruginosa GN_043, PmxR ([1]; polymyxin-resistant): 4 mg/L (≈ 3.94 µM) |

From US11279733B2, “Peptide antibiotics” (priority 2017, dated 2022)
